Series [1] in a line: Kinetic solubility of the compound in 10 mM of phosphate buffer at pH 7.2 by CLND method. It counts as physicochemical. To be noted: read-out: Kinetic_solubility.
A short description of series [2]: AUC in dog at 2.5 mg/kg, po. To be noted: plasma. The class given is ADME, organism-based, Canis lupus familiaris. Details: dose 2.5 mg/kg, route oral.
The test system of series [3] is Hepatitis C virus. Description: Ratio of EC50 for HCV1a H77 infected in human HuH7 cells in presence of 40% human plasma to EC50 for HCV1a H77 infected in human HuH7 cells in absence of 40% human plasma. The class given is functional, Hepacivirus hominis, genotype 1a H77, Huh-7.
A short description of series [4]: Oral bioavailability in rat at 3 mg/kg. It counts as ADME, organism-based. The conditions noted are these: in vivo.
Series [5] is described as follows: Metabolic stability in rat liver microsomes assessed as compound remaining after 30 mins. The class given is ADME. The conditions noted are these: read-out: Stability.
For series [6], the system named is Hepatitis C virus. Kind of series: Antiviral activity against HCV1a H77 infected in human HuH7 cells assessed as inhibition of viral replication after 4 days by luciferase reporter gene assay in presence of 40% human plasma. The class given is functional, organism-based, Hepacivirus hominis. To be noted: genotype 1a H77, Huh-7, Plasma, 96 h. In general terms: In a reporter assay the amount or activity of a reporter protein is the signal.

Series [7] in a line: Half life in dog at 1 mg/kg, iv. The class given is ADME, organism-based, Canis lupus familiaris. Details: dose 1 mg/kg, route intravenous. To be noted: in vivo.
Series [8] in a line: Oral bioavailability in dog at 2.5 mg/kg. The conditions noted are these: in vivo. It counts as ADME, organism-based, Canis lupus familiaris.
Series [9] is described as follows: Half life in dog at 2.5 mg/kg, po. The class given is ADME, organism-based, Canis lupus familiaris. More on the design: dose 2.5 mg/kg, route oral. To be noted: in vivo.
Series [10] in a line: Cmax in dog at 2.5 mg/kg, po. The class given is ADME, organism-based, Canis lupus familiaris. More on the design: dose 2.5 mg/kg, route oral. The conditions noted are these: in vivo.
A short description of series [11]: Clearance in dog at 1 mg/kg, iv. The class given is ADME, organism-based, Canis lupus familiaris. Details: dose 1 mg/kg, route intravenous. The conditions noted are these: in vivo.
Series [12] can be described thus: Half life in rat at 3 mg/kg, iv. More on the design: dose 3 mg/kg, route intravenous. The conditions noted are these: in vivo. The class given is ADME, organism-based.
The nature of series [13]: AUC in rat at 3 mg/kg, po. The class given is ADME, organism-based. Details: dose 3 mg/kg, route oral. To be noted: plasma.
The test system of series [14] is Hepatitis C virus. Description: Ratio of EC50 for HCV1b Con1 infected in human HuH7 cells in presence of 40% human plasma to EC50 for HCV1b Con1 infected in human HuH7 cells in absence of 40% human plasma. It counts as functional, Hepacivirus hominis, isolate Con1, Huh-7.
A short description of series [15]: Tmax in rat at 3 mg/kg, po. It counts as ADME, organism-based. More on the design: dose 3 mg/kg, route oral. The conditions noted are these: in vivo.
A short description of series [16]: Clearance in rat at 3 mg/kg, iv. To be noted: in vivo. More on the design: dose 3 mg/kg, route intravenous. It counts as ADME, organism-based.
The nature of series [17]: Half life in rat at 3 mg/kg, po. The class given is ADME, organism-based. Details: dose 3 mg/kg, route oral. The conditions noted are these: in vivo.
Series [18] can be described thus: Volume of distribution at steady state in dog at 1 mg/kg, iv. It counts as ADME, organism-based, Canis lupus familiaris. Details: dose 1 mg/kg, route intravenous. The conditions noted are these: in vivo, read-out: Vdss.
Series [19] is described as follows: Volume of distribution at steady state in rat at 3 mg/kg, iv. It counts as ADME, organism-based. Details: dose 3 mg/kg, route intravenous. The conditions noted are these: in vivo, read-out: Vdss.
The subject of series [20] is Hepatitis C virus. Kind of series: Antiviral activity against HCV1b Con1 infected in human HuH7 cells assessed as inhibition of viral replication after 4 days by luciferase reporter gene assay. The class given is functional, organism-based, Hepacivirus hominis. The conditions noted are these: isolate Con1, Huh-7, 96 h.
Series [21] relates to Hepatitis C virus. Kind of series: Antiviral activity against HCV1b Con1 infected in human HuH7 cells assessed as inhibition of viral replication after 4 days by luciferase reporter gene assay in presence of 40% human plasma. It counts as functional, organism-based, Hepacivirus hominis. The conditions noted are these: isolate Con1, Huh-7, Plasma, 96 h.
Series [22] in a line: Cmax in rat at 3 mg/kg, po. The conditions noted are these: in vivo. More on the design: dose 3 mg/kg, route oral. It counts as ADME, organism-based.
The nature of series [23]: Tmax in dog at 2.5 mg/kg, po. The conditions noted are these: in vivo. It counts as ADME, organism-based, Canis lupus familiaris. Details: dose 2.5 mg/kg, route oral.
Series [24] can be described thus: Metabolic stability in human liver microsomes assessed as compound remaining after 30 mins. The class given is ADME. To be noted: read-out: Stability. A general note: Microsomes from liver hold many membrane-bound enzymes, among them those of drug oxidation.
A short description of series [25]: Lipophilicity, log D of the compound at pH 7.4 by HPLC analysis. It counts as physicochemical. The conditions noted are these: buffer.
Series [26] relates to Hepatitis C virus. Description: Antiviral activity against HCV1a H77 infected in human HuH7 cells assessed as inhibition of viral replication after 4 days by luciferase reporter gene assay. The class given is functional, organism-based, Hepacivirus hominis. To be noted: genotype 1a H77, Huh-7, 96 h.
Series [27] is described as follows: Half life in monkey at 1 mg/kg, iv. The class given is ADME, organism-based, Macaca mulatta. Details: dose 1 mg/kg, route intravenous. To be noted: rhesus monkey, in vivo.
Series [28] in a line: AUC in monkey at 2.5 mg/kg, po. The class given is ADME, organism-based, Macaca mulatta. Details: dose 2.5 mg/kg, route oral. The conditions noted are these: rhesus monkey, plasma.
Series [29] can be described thus: Tmax in monkey at 2.5 mg/kg, po. Details: dose 2.5 mg/kg, route oral. It counts as ADME, organism-based, Macaca mulatta. To be noted: rhesus monkey, in vivo.
Series [30] in a line: Oral bioavailability in monkey at 2.5 mg/kg. The class given is ADME, organism-based, Macaca mulatta. The conditions noted are these: rhesus monkey, in vivo.
Series [31] in a line: Half life in monkey at 2.5 mg/kg, po. It counts as ADME, organism-based, Macaca mulatta. More on the design: dose 2.5 mg/kg, route oral. The conditions noted are these: rhesus monkey, in vivo.
Series [32] is described as follows: Volume of distribution at steady state in monkey at 1 mg/kg, iv. It counts as ADME, organism-based, Macaca mulatta. Details: dose 1 mg/kg, route intravenous. To be noted: rhesus monkey, in vivo, read-out: Vdss.
Series [33] is described as follows: Cmax in monkey at 2.5 mg/kg, po. To be noted: rhesus monkey, in vivo. More on the design: dose 2.5 mg/kg, route oral. It counts as ADME, organism-based, Macaca mulatta.
Series [34] is described as follows: Clearance in monkey at 1 mg/kg, iv. The conditions noted are these: rhesus monkey, in vivo. More on the design: dose 1 mg/kg, route intravenous. It counts as ADME, organism-based, Macaca mulatta.
Series [35] concerns Hepatitis C virus. Kind of series: Antiviral activity against HCV genotype 1 infected in human assessed as cure rate. It counts as functional, Hepacivirus hominis.

In brackets after ≈: the same amount, converted by molar mass. A value given as a limit tells only on which side of the number the result lay.

What is called AUC is concentration integrated over time. For orientation: bioavailability means dose-corrected exposure relative to a reference, in per cent. The term EC50 denotes the midpoint of the concentration-response curve. The term half-life denotes the time needed for the level to fall by half in the phase considered. As a reminder, the Cmax is the highest concentration seen after dosing. As a reminder, the clearance is the volume of plasma or blood freed of the substance per unit of time. A word on the Tmax: it is the time at which the peak concentration occurs. A word on the logD: it is the decadic logarithm of the distribution of all forms, ionised or not, between an organic phase and buffer at a given pH. As to `COC(=O)N[C@H](C(=O)N1CCC[C@H]1C(=O)Nc1ccc([C@@H]2CC[C@@H](c3ccc(NC(=O)[C@@H]4CCCN4C(=O)[C@@H](NC(=O)OC)C(C)C)cc3)N2c2ccc(C(F)(F)F)cc2)cc1)C(C)C`, the solubility kinetic in series [1] worked out at 3.4 µM (≈ 3.08 µg/mL). Also, the AUC is 850 ng·h/mL in [2] and 500 ng·h/mL in series [13]. Also, the “Ratio EC50” value in the series on Hepatitis C virus [3] came to 11; with Hepatitis C virus [14], 10. Moreover, the bioavailability in series [4] stood at 16%; in series [8] it was 5.5%. Further, the remaining at 0.5 h is 56% in series [5] and 52% in series [24]. The EC50 in the series on Hepatitis C virus [6] came to 0.65 nM; in the series on Hepatitis C virus [20], 0.0071 nM; with Hepatitis C virus [21], 0.072 nM; in the series with Hepatitis C virus [26], 0.057 nM. For the same compound, the half-life in series [7] was 6 h; in series [9], 5.8 h; in series [12] it was 6 h; in series [17], 12.1 h. Moreover, the Cmax in series [10] turned out to be 70 ng/mL; in [22] it was 30 ng/mL. In addition, the clearance in series [11] was 2.67 mL/min/kg; in series [16], 20 mL/min/kg. The results for the Tmax in series [15] and in series [23] were 2.2 h and 4.7 h, respectively. For the same compound, the Vd in [18] came out at 1.3 L/kg; in series [19] it was 8.9 L/kg. In addition, the logD in [25] amounted to 4.8.
Consider `COC(=O)N[C@H](C(=O)N1CCC[C@H]1C(=O)Nc1ccc([C@H]2CC[C@H](c3ccc(NC(=O)[C@@H]4CCCN4C(=O)[C@@H](NC(=O)OC)C(C)C)cc3)N2c2ccc(C(F)(F)F)cc2)cc1)C(C)C`, for which the solubility kinetic in series [1] came to 3.2 µM (≈ 2.9 µg/mL). The AUC in [2] was determined as 370 ng·h/mL; in series [13], 1360 ng·h/mL. Also, the figures for the “Ratio EC50” value with Hepatitis C virus [3] and in the series on Hepatitis C virus [14] were 9 and 12, respectively. Further, the bioavailability in series [4] was found to be 13%; in series [8], 4.2%. For the same compound, the remaining at 0.5 h in series [5] and in series [24] was 58% throughout. Moreover, the EC50 with Hepatitis C virus [6] was 2.55 nM; with Hepatitis C virus [20], 0.0062 nM; in the series with Hepatitis C virus [21], 0.077 nM; in the series on Hepatitis C virus [26], 0.299 nM. In addition, the half-life is 4.4 h in [7], 5.5 h in series [9], 4.2 h in series [12] and 4.9 h in series [17]. Moreover, the Cmax in series [10] is 50 ng/mL; in series [22], 200 ng/mL. Besides, the clearance in series [11] and in series [16] was 4.83 mL/min/kg each time. Moreover, the Tmax in series [15] came out at 1.5 h; in series [23], 1.7 h. The Vd is 1.5 L/kg in [18] and 1.3 L/kg in series [19]. In series [25], this compound showed a logD of 4.9.
Turning to `COC(=O)N[C@H](C(=O)N1CCC[C@H]1C(=O)Nc1ccc([C@H]2CC[C@H](c3ccc(NC(=O)[C@@H]4CCCN4C(=O)[C@@H](NC(=O)OC)C(C)C)cc3)N2c2ccc(F)cc2)cc1)C(C)C`, the solubility kinetic in series [1] came to 6 µM (≈ 5.14 µg/mL). In addition, the AUC in series [2] came to 1280 ng·h/mL; in series [28], 80 ng·h/mL; in [13], 6360 ng·h/mL. Also, the “Ratio EC50” value with Hepatitis C virus [3] came out at 4; with Hepatitis C virus [14] it was 5. Besides, the bioavailability is 22% in [4], 62% in [8] and 10% in [30]. The remaining at 0.5 h in [5] and in series [24] was 38% throughout. In addition, the EC50 with Hepatitis C virus [6] is 11.1 nM; with Hepatitis C virus [20] it was 0.042 nM; in the series on Hepatitis C virus [21] it was 0.208 nM; in the series on Hepatitis C virus [26], 2.53 nM. Also, the half-life was 2 h in [7]; 0.8 h in series [27]; 2.2 h in [9]; 3.3 h in [12]; 2.8 h in series [17]; 0.6 h in [31]. Besides, the figures for the Cmax in series [10], in series [22] and in series [33] were 420 ng/mL, 1380 ng/mL and 50 ng/mL, respectively. For the same compound, the values for the clearance in [11], in [16] and in series [34] were 21.7 mL/min/kg, 2.17 mL/min/kg and 51.7 mL/min/kg, respectively. In addition, the Tmax in series [15] amounted to 1.3 h; in series [29], 1.5 h; in series [23], 1.2 h. The Vd in series [18] was 1.9 L/kg; in [19], 0.5 L/kg; in series [32], 1.5 L/kg. Besides, in series [25], the logD worked out at 4.6.
Turning to `CC(C)(C)NC(=O)N[C@H](C(=O)N1C[C@H]2[C@@H]([C@H]1C(=O)NC(CC1CCC1)C(=O)C(N)=O)C2(C)C)C(C)(C)C` (some centres not stated) [BOCEPREVIR], in the series with Hepatitis C virus [35], the Activity result is on record as “<=75%”.

Values taken from ChEMBL document CHEMBL3124779, “Discovery of ABT-267, a pan-genotypic inhibitor of HCV NS5A” (J Med Chem, 2014).
